The text below walks through data of patent publication EP1996603B1, “LIPID A ANTAGONISTS WITH ANTI-SEPTIC SHOCK, ANTI-INFLAMMATORY, ANTI-ISCHEMIA AND ANALGESIC ACTIVITY” (Università Degli Studi Di Milano - Bicocca, priority 2006, dated 2007).

The subject of data set [1] is neuropathic mice. The data set can be described thus: Neuropathic pain after sciatic nerve ligation (plantar test, Von Frey test). In kind it is in vivo, mice C57BL/6J. To be noted: i.p. 5 mg/kg once a day for one week starting the day after surgery. How it is done:
Male mice C57BL/6J were anesthetized with sodium pentobarbital (65 mg/kg, i.p.) and submitted to surgery to induce neuropathic pain. […] Sham animals (sciatic exposure without ligation) were used as controls. The animal pain response was monitored before surgery, on day 7 (24 h after the last administration). Compound (Id) was administered i.p. at 5 mg/kg once a day starting the day after the surgery. Heat hypersensitivity was tested according to the Hargreaves' procedure using the plantar test (Ugo Basile, Varese, Italy). Mechanical allodynia was measured using the Von Frey test.

Data set [2] relates to DC and MΦ. The data set can be described thus: Cytotoxicity: PI test and annexin V test by FACS. In kind it is cell-based. The settings on record: 10 to 100 µM, 48 h incubation, 24 h in Figure 3 legend. The method, then: (§1) • Figure 1. Antagonistic activity of compounds Ia, Ic and Id on lipid A-stimulated cytokine production in BMDC, BMØ and D1 cells. TNFα production was measured in the supernatants 24 h later. From the right: lipid A (0.5µM), cells treated with lipid A alone; DMSO: cells incubated in the presence of complete medium plus DMSO; inhibitor 50 µM, cells treated only with monosaccharides Ia, Ic and Id; other columns, lipid A + compounds […] at increasing doses. The data represent means and standard deviations of triplicate wells. This is a representative of three independent experiments. *, p < 0.05; **, p < 0.01; ***, p< 0.001. • Figure 2. TLR-4 selectivity of monosaccharide Id. […] IL-1β was measured in the supernatants by ELISA. […] Lower panels, TNFα production measured by ELISA 24 h after stimulation with CpG (selective for TLR-9) or PAM3Cys-SK4 (selective for TLR-2) in the presence of compound Id. […] The cells were then analyzed by FACS for the presence of annexin V and propidium iodide (PI) double positive cells. […] NF-kB activation was evaluated in the nuclear extract 2 h later and expressed as optical density (OD) at 450 nm. […] Effect of different doses of compound Id on carrageenan induced edema in mice measured 4h after the exposure and expressed as difference between the paw volume of treated paw versus the contralateral paw. […]
In general terms: Flow cytometry measures light scatter and fluorescence of single cells or particles in a stream.

The test system of data set [3] is BMΦ and D1 cells. The data set can be described thus: Lipid A-induced IL-1β production (ELISA). It is filed as cell-based, Mouse. To be noted: lipid A (0.5 µM) stimulation, effect proportional to concentration. How it is done: as §1
In general terms: ELISA stands for enzyme-linked immunosorbent assay.

Data set [4] has as its system TLR2. The data set can be described thus: TNFα production after stimulation with Pam3Cys-SK4 (TLR2 selectivity). In kind it is cell-based, Mouse. The settings on record: stimulation with Pam3Cys-SK4, specific for TLR2. How it is done: as §1

SMILES strings stand for the structures. “Also recorded” adds a separate entry of the source.

On to `CCCCCCCCCCCCCCO[C@H]1[C@@H](OC)O[C@H](C[N+](C)(C)C2CCCC2)[C@@H](O)[C@@H]1OCCCCCCCCCCCCCC` [Compound Id, methyl 6-deoxy-6-N,N',N"-dimethylcyclopentylammonium-2,3-di-O-tetradecyl-α-D-glucopyranoside], for which the mechanical allodynia result in data set [1] (Von Frey test) was “significant relief”. Further, the thermal hyperalgesia result in data set [1] (plantar test) is “significant relief”. Besides, the “percent of dead cells” value in data set [2] is “does not induce death of MΦ and DC; also recorded: Neither DC nor MΦ showed an appreciable percent of dead cells”. The IL-1β synthesis result in data set [3] was “inhibited”. Further, in data set [4], the TNFα production entry is “not inhibited”.
